Experimental data published in patent US20260374794A1, “COMPOUNDS TARGETING MUTANT OF P53” (JACOBIO PHARMACEUTICALS CO., LTD., priority 2022, published 2026).
Like-named read-outs stand apart in the source and are kept apart here.

Legend:
p53(Y220C)_NUGC-3 = p53(Y220C)_NUGC-3 (Homo sapiens, UniProt P04637, Y220C); experiment: Reporter gene assay (NUGC-3_P53_Luc cells); assay type: cell-based
Experimental: NUGC-3_P53_Luc single clonal cell line was established using pGL4.38[luc2P/p53 RE/Hygro] Vector (E365A, promega). NUGC-3_P53_Luc single clonal cells were cultured in 37 °C cell incubator before use. NUGC-3_P53_Luc cells were collected and washed twice with PBS to remove phenol red and then resuspended in medium to a proper concentration. Tested compound dilutions were transferred into 384 well assay plates (PerkinElmer). A desired number of cells was seeded into the assay plate and cultured for 6 hours at 37 °C cell incubator. Britelite plus Luciferase Assay Reagent were added into each well and the luminescence value was recorded on Envision. The percent of activity value of compounds treated wells was normalized between high control and low control. Wells containing cells and Ref-la (10 μM) served as high control, and wells containing cells and same percentage of DMSO served as low control. Activity value (%)=(Luminescence readoutCompound treated−Luminescence readoutLow control)/(Luminescence readoutHigh control−Luminescence readoutLow control)*100%. Then the data were analyzed either by fitting a 4-parameter logistic model or by Excel to calculate EC50 values and the EC50 was the concentration at 50% Activity on the curve.

NUGC-3 (P53 Y220C) = experiment: Cell viability assay (CellTiter-Glo); assay type: cell-based; details: NUGC-3 cells, 6 days, 37 °C
Experimental: Cells were collected and counted. A desired number of cells was seeded into 96-well microplate and cultured in 37 °C cell incubator overnight. Compounds dissolved in cell culture medium were added into cell plate and cultured for 6 days. After balancing CellTiter-Glo reagent and cells at room temperature for 30 min, equal volume of CellTiter-Glo reagents was added to assay plate and shaken for 2 min for cell lysis. The cells were balanced at room temperature for 10 minutes and Luminescence signal was read using Envision. The percent of cell viability for compounds treated wells were normalized between High control and low control. Wells containing cell culture medium and same percentage DMSO served as Low control. Wells containing cells and same percentage DMSO served as High control. Cell viability (%)=(Luminescence readoutCompound treated−Luminescence readoutLow control)/(Luminescence readoutHigh control−Luminescence readoutLow control)*100%. Then the data were analyzed either by fitting a 4-parameter logistic model or by Excel to calculate IC50 values. And the IC50 was the concentration at […] Cell viability on the curve.

p53(Y220C) = target: T1, p53(Y220C) (Homo sapiens, UniProt P04637, Y220C); experiment: In vitro DNA binding assay (HTRF), His-p53 Y220C (94-294) with biotinylated p53 consensus DNA; assay type: biochemical
T1 construct: His-p53 Y220C (94-294) protein
Experimental: After His-p53 Y220C (94-294) protein was placed with a compound in the present of MAb Anti His-Tb cryptate (Cisbio, Cat. NO. 61HI2TLA) in a 384 well microplate (Greiner) for 15 min at 25 °C, the assay plate was transferred into 27 °C incubator and incubated for 60 min. Biotinalyted p53 consensus DNA (ID: p53-SEQUENCE 2 —F: 5′(biotin)-[…] 3′ —R: 5′ […] 3′) was added into the assay plate in the present of Streptaidin-d2 (Cisbio, Cat. NO. 610SADLF) cryptate (Final concentration: 20 mM HEPES pH=7.4, 75 mM KCl, 1 mM MgCl2, 0.1% (w/v) BSA, 1 mM DTT, 2.5 nM His-P53 Y220C (94-294) protein, 0.33 nM MAb Anti His-Tb cryptate, 2.5 nM Streptaidin-d2 cryptate, 10 nM Biotinalyted DNA) and incubated for another 60 min. Wells containing 2 μM reference compound Ref-1a served as high control, and wells containing same percentage of DMSO served as low control. Homogeneous time-resolved fluorescence (HTRF) signals were read on Tecan Spark multimode microplate reader. HTRF ratios for each individual well were calculated by equation: HTRF ratio=(Signal F665/Signal F620)*1000. The percent of activation of compounds treated wells were normalized between high control and low control (% Activation=(HTRF ratiocompound treated−HTRF ratiolow control)/(HTRF ratiohigh control−HTRF ratiolow control)*100%). Then the data were analyzed either by fitting a 4-parameter logistic model or by Excel to calculate EC50 values. And the EC50 was the concentration at 50% Activation on the curve.

[1] = 6 hours, 37 °C, luciferase, normalized to Ref-1a 10 μM, EC50 = concentration at 50% Activity, read-out: p53(Y220C)_NUGC-3 EC50
[2] = HTRF, 27 °C, His-p53 Y220C (94-294) 2.5 nM, biotinylated DNA 10 nM, normalized to 2 μM Ref-1a, EC50 = concentration at 50% Activation, read-out: p53(Y220C) EC50

| Compound | EC50 (p53(Y220C)_NUGC-3; [1]) [nM] | EC50 (p53(Y220C); [2]) [nM] | EC50 (p53(Y220C)_NUGC-3; read-out: p53(Y220C)_NUGC-3 EC50, 6 hours, 37 °C, luciferase, normalized to Ref-1a 10 μM, EC50 = concentration at 50% Activity) [nM] | EC50 (p53(Y220C)) [nM] | IC50 (NUGC-3 (P53 Y220C); Homo sapiens, 144 h) [nM] | IC50 (NUGC-3 (P53 Y220C)) [nM] |
| --- | --- | --- | --- | --- | --- | --- |
| COc1cc(S(=N)(=O)C2CCOCC2)ccc1NCC#Cc1sc2c(NC3CCN(C)CC3F)cccc2c1CC(F)(F)F [Example 24, (S)-(4-((3-(7-(((3S,4R)-3-fluoro-1-methylpiperidin-4-yl)amino)-3-(2,2,2-trifluoroethyl)benzo[b]thiophen-2-yl)prop-2-yn-1-yl)amino)-3-methoxyphenyl)(imino)(tetrahydro-2H-pyran-4-yl)-16-sulfanone] | 119 | 68 | – | – | 900 | – |
| COc1cc([S@](=N)(=O)C(C)C)ccc1NCC#Cc1sc2c(N[C@@H]3CCN(C)C[C@@H]3F)cccc2c1CC(F)(F)F [Example 26, (R)-(4-((3-(7-(((3S,4R)-3-fluoro-1-methylpiperidin-4-yl)amino)-3-(2,2,2-trifluoroethyl)benzo[b]thiophen-2-yl)prop-2-yn-1-yl)amino)-3-methoxyphenyl)(imino)(isopropyl)-16-sulfanone] | 208 | 70 | – | – | 1840 | – |
| COc1cc(P(C)(C)=O)ccc1NCC#Cc1sc2c(N[C@@H]3CCCN(C)C3)cccc2c1CC(F)(F)F [Example 28, (R)-(3-methoxy-4-((3-(7-((1-methylpiperidin-3-yl)amino)-3-(2,2,2-trifluoroethyl)benzo[b]thiophen-2-yl)prop-2-yn-1-yl)amino)phenyl)dimethylphosphine oxide] | 244 | 77 | – | – | 1550 | – |
| COc1cc(P(C)(C)=O)ccc1NCC#Cc1sc2c(N[C@@H]3CCN(C)C[C@@H]3F)cccc2c1[C@H](O)C(F)(F)F [Example 31, (4-((3-(7-(((3S,4R)-3-fluoro-1-methylpiperidin-4-yl)amino)-3-((S)-2,2,2-trifluoro-1-hydroxyethyl)benzo[b]thiophen-2-yl)prop-2-yn-1-yl)amino)-3-methoxyphenyl)dimethylphosphine oxide] | 126 | 29 | – | – | 870 | – |
| COc1cc(P(C)(C)=O)ccc1NCC#Cc1sc2c(N[C@H]3CCN(C)C[C@H]3F)cccc2c1[C@@H](O)C(F)(F)F [Example 34, (4-((3-(7-(((3R,4S)-3-fluoro-1-methylpiperidin-4-yl)amino)-3-((R)-2,2,2-trifluoro-1-hydroxyethyl)benzo[b]thiophen-2-yl)prop-2-yn-1-yl)amino)-3-methoxyphenyl)dimethylphosphine oxide] | 28 | 20 | – | – | 380 | – |
| COc1c(NCC#Cc2sc3c(N[C@@H]4CCN(C)C[C@@H]4F)cccc3c2CC(F)(F)F)ccc(P(C)(C)=O)c1C(F)(F)F [Example 42, (4-((3-(7-(((3S,4R)-3-fluoro-1-methylpiperidin-4-yl)amino)-3-(2,2,2-trifluoroethyl)benzo[b]thiophen-2-yl)prop-2-yn-1-yl)amino)-3-methoxy-2-(trifluoromethyl)phenyl)dimethylphosphine oxide] | 252 | 93 | – | – | 1890 | – |
| CCOc1c(P(C)(C)=O)ccc(NCC#Cc2sc3c(N[C@@H]4CCN(C)C[C@@H]4F)cccc3c2CC(F)(F)F)c1OC [Example 43, (2-ethoxy-4-((3-(7-(((3S,4R)-3-fluoro-1-methylpiperidin-4-yl)amino)-3-(2,2,2-trifluoroethyl)benzo[b]thiophen-2-yl)prop-2-yn-1-yl)amino)-3-methoxyphenyl)dimethylphosphine oxide] | 160 | 56 | – | – | 590 | – |
| COc1nc([S@](C)(=N)=O)ccc1NCC#Cc1sc2c(N[C@@H]3CCN(C)C[C@@H]3F)cccc2c1CC(F)(F)F [Example 44, (R)-(5-((3-(7-(((3S,4R)-3-fluoro-1-methylpiperidin-4-yl)amino)-3-(2,2,2-trifluoroethyl)benzo[b]thiophen-2-yl)prop-2-yn-1-yl)amino)-6-methoxypyridin-2-yl)(imino)(methyl)-16-sulfanone] | 84 | 46 | – | – | 1350 | – |
| COc1cc(P(C)(C)=O)ccc1NCC#Cc1sc2c(N[C@@H]3CN4CCC3CC4)cccc2c1CC(F)(F)F [Example 48, (S)-(3-methoxy-4-((3-(7-(quinuclidin-3-ylamino)-3-(2,2,2-trifluoroethyl)benzo[b]thiophen-2-yl)prop-2-yn-1-yl)amino)phenyl)dimethylphosphine oxide] | – | – | 439 | 65 | 1600 | – |
| COc1cc([S@](=N)(=O)C2COC2)ccc1NCC#Cc1sc2c(N[C@@H]3CCN(C)C[C@@H]3F)cccc2c1CC(F)(F)F [Example 49, (R)-(4-((3-(7-(((3S,4R)-3-fluoro-1-methylpiperidin-4-yl)amino)-3-(2,2,2-trifluoroethyl)benzo[b]thiophen-2-yl)prop-2-yn-1-yl)amino)-3-methoxyphenyl)(imino)(oxetan-3-yl)-16-sulfanone] | 64 | 51 | – | – | – | 750 |

Further compounds by falling EC50 (p53(Y220C)_NUGC-3; [1]), results first:

| EC50 (p53(Y220C)_NUGC-3; [1]) [nM] | EC50 (p53(Y220C); [2]) [nM] | EC50 (p53(Y220C)_NUGC-3; read-out: p53(Y220C)_NUGC-3 EC50, 6 hours, 37 °C, luciferase, normalized to Ref-1a 10 μM, EC50 = concentration at 50% Activity) [nM] | EC50 (p53(Y220C)) [nM] | Compound | IC50 (NUGC-3 (P53 Y220C); Homo sapiens, 144 h) [nM] | IC50 (NUGC-3 (P53 Y220C)) [nM] |
| --- | --- | --- | --- | --- | --- | --- |
| 137 | 56 | – | – | COc1c(NCC#Cc2sc3c(N[C@@H]4CCN(C)C[C@@H]4F)cccc3c2CC(F)(F)F)ccc(P(C)(C)=O)c1C [Example 41, (4-((3-(7-(((3S,4R)-3-fluoro-1-methylpiperidin-4-yl)amino)-3-(2,2,2-trifluoroethyl)benzo[b]thiophen-2-yl)prop-2-yn-1-yl)amino)-3-methoxy-2-methylphenyl)dimethylphosphine oxide] | 1230 | – |
| 117 | 81 | – | – | COc1cc(S(C)(=O)=O)ccc1NCC#Cc1sc2c(N[C@@H]3CCN(C)C[C@@H]3F)cccc2c1CC(F)(F)F [Example 36, (3S,4R)-3-fluoro-N-(2-(3-((2-methoxy-4-(methylsulfonyl)phenyl)amino)prop-1-yn-1-yl)-3-(2,2,2-trifluoroethyl)benzo[b]thiophen-7-yl)-1-methylpiperidin-4-amine] | 590 | – |
| 102 | 55 | – | – | COc1cc(P(C)(C)=O)ccc1NCC#Cc1sc2c(N[C@@H]3CCN(C)C[C@@H]3F)cccc2c1[C@@H](O)C(F)(F)F [Example 33, (4-((3-(7-(((3S,4R)-3-fluoro-1-methylpiperidin-4-yl)amino)-3-((R)-2,2,2-trifluoro-1-hydroxyethyl)benzo[b]thiophen-2-yl)prop-2-yn-1-yl)amino)-3-methoxyphenyl)dimethylphosphine oxide] | 1440 | – |
| 95 | 65 | – | – | COc1nc([S@@](C)(=N)=O)ccc1NCC#Cc1sc2c(N[C@@H]3CCN(C)C[C@@H]3F)cccc2c1CC(F)(F)F [Example 45, (S)-(5-((3-(7-(((3S,4R)-3-fluoro-1-methylpiperidin-4-yl)amino)-3-(2,2,2-trifluoroethyl)benzo[b]thiophen-2-yl)prop-2-yn-1-yl)amino)-6-methoxypyridin-2-yl)(imino)(methyl)-16-sulfanone] | 1330 | – |
